Each structure is given as a SMILES string. Numbering of substitutions follows the chain as printed.

Holding throughout (format): biochemical
For test [1], the target named is T1, CAC C23V/C58V/C89S/C155V/C283S mutant (Rattus norvegicus, UniProt P97521, C155V/C23V/C283S/C58V/C89S).
T1 construct: made in house; host or cells: E. coli C0214
T1 sequence (P97521 1-301 C23V/C58V/C89S/C155V/C283S): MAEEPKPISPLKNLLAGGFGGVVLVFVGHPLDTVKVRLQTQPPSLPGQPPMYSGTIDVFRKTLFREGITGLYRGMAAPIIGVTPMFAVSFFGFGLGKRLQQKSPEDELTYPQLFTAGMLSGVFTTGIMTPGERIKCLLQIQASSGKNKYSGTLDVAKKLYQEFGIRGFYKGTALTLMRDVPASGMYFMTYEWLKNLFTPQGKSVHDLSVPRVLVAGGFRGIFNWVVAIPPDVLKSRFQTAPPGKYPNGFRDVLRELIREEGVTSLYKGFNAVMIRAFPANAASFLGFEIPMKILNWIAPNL
Nature of the test: Transport assay in proteoliposomes, CAC mutant containing the sole C136. Particulars: read-out: IC50 for itaconate inhibition. Here is the method:
(§1) As previously described, the pMW7-WTratCAC recombinant plasmid was used for over-expressing the rat CAC [22]. The overlap extension method was used to introduce the mutations; in the main time, NdeI and HindIII restriction sites were also added using appropriate primers. The PCR products were purified by the QIAEX II Gel Extraction Kit (QIAGEN) and digested with NdeI and HindIII and then ligated into the pMW7. All mutations were verified by DNA sequencing. The resulting plasmid constructs were transformed into E. coli C0214. Overexpression, inclusion body fraction preparation, and purification of the CAC proteins were performed as previously described. […]
(§2) To test the transport activity of the CAC, 550 μL of proteoliposomes was passed through a Sephadex G-75 column to remove the external substrate. […] Transport rates were measured in 10 min, i.e., within the initial linear range of the time course, at 25 °C. After terminating the transport reaction, the external substrate was removed by chromatography on the Sephadex G-75 column, and the intraliposomal radioactivity was measured. […]
Figure 3 Identification of residue responsible for itaconate inhibition. […] Transport activity of the WT (○), C136A (●), C155A (Δ), C23V/C58V/C89S/C155V/C283S (▲), and C23V/C58V/C89S/C136V/C155V/C283S (□) was measured by adding 0.1 mM [^3H]carnitine after treatment by itaconate at the indicated concentrations. […]

Test [2] addresses T2, CAC C23V/C58V/C89S/C136V/C155V/C283S (C-less) mutant (Rattus norvegicus, UniProt P97521, C136V/C155V/C23V/C283S/C58V/C89S).
T2 construct: made in house; host or cells: E. coli C0214
T2 sequence (P97521 1-301 C23V/C58V/C89S/C136V/C155V/C283S): T1 sequence (P97521 1-301 C23V/C58V/C89S/C155V/C283S) with C136V
In words: Transport assay in proteoliposomes, C-less CAC mutant. The method, then: As previously described, the pMW7-WTratCAC recombinant plasmid was used for over-expressing the rat CAC [22]. The overlap extension method was used to introduce the mutations; in the main time, NdeI and HindIII restriction sites were also added using appropriate primers. The PCR products were purified by the QIAEX II Gel Extraction Kit (QIAGEN) and digested with NdeI and HindIII and then ligated into the pMW7. All mutations were verified by DNA sequencing. The resulting plasmid constructs were transformed into E. coli C0214. Overexpression, inclusion body fraction preparation, and purification of the CAC proteins were performed as previously described.
As previously described, recombinant CAC (WT and mutants) and ORC1 proteins were used for proteoliposome formation. For experiments with native CAC, ORC1, or ANT proteins, rat liver mitochondria, or HeLa cell mitochondria, the latter for the CAC alone, were first purified using the standard procedure of cell disruption and differential centrifugation. Then proteins were extracted using 3% Triton X-100 and reconstituted as described for the recombinant proteins. The concentration of intraliposomal carnitine and ornithine was 15 mM and 30 mM, respectively, in all samples.
To test the transport activity of the CAC, 550 μL of proteoliposomes was passed through a Sephadex G-75 column to remove the external substrate. Six hundred μL of the turbid eluate was collected, divided into samples of 100 μL each, and used for transport measurement by the inhibitor-stop method. Transport was started by adding 0.1 mM [^3H]carnitine ([^3H]ornitine or [^3H]ATP) to proteoliposome samples and stopped with 1.5 mM NEM (N-ethylmaleimide) at the indicated time interval. In the control samples, NEM was added with the labeled substrate at time zero. Transport rates were measured in 10 min, i.e., within the initial linear range of the time course, at 25 °C. After terminating the transport reaction, the external substrate was removed by chromatography on the Sephadex G-75 column, and the intraliposomal radioactivity was measured. The experimental values were corrected by subtracting the controls.
Figure 3 Identification of residue responsible for itaconate inhibition. (a) Dose–response analysis of the Cys mutants of CAC for the inhibition by itaconate was performed. Transport activity of the WT (○), C136A (●), C155A (Δ), C23V/C58V/C89S/C155V/C283S (▲), and C23V/C58V/C89S/C136V/C155V/C283S (□) was measured by adding 0.1 mM [^3H]carnitine after treatment by itaconate at the indicated concentrations. Transport activity (µmol/10 min/mg) is: WT 1.80 ± 0.31; C136A 0.91 ± 0.10; C155A 1.00 ± 0.17; C23V/C58V/C89S/C155V/C283S 1.02 ± 0.159; C23V/C58V/C89S/C136V/C155V/C283S 0.71 ± 0.22. (b) Dose–response analysis of proteoliposomes reconstituted native (○) or recombinant ORC (●) incubated with itaconate at the indicated concentrations. Transport activity was measured by adding 0.1 [^3H]ornithine, respectively, as described in Materials and Methods. The data are expressed as a percent of the controls (no addition of itaconate) and are means ± SD from three independent experiments.
Figure 4 Lysine contribution to CAC inhibition by itaconate. Protection of PLP (pyridoxal phosphate) from inhibition by itaconate on C-less CAC was carried out. C-less mutant (i.e., C23V/C58V/C89S/C136V/C155V/C283S) was reconstituted into proteoliposomes and treated or not treated with 30 mM PLP for 10 min (“Contr” or “PLP” column, respectively). […]

For the next test, the target named is T3, CAC K135A mutant (Rattus norvegicus, UniProt P97521, K135A).
T3 construct: made in house; host or cells: E. coli C0214
T3 sequence (P97521 1-301 K135A): T1 sequence (P97521 1-301 C23V/C58V/C89S/C155V/C283S) with V23C, V58C, S89C, K135A, V155C, S283C
In words: Transport assay in proteoliposomes, CAC mutant K135A. The settings on record: read-out: IC50 for itaconate inhibition. Here is the method: as §1, §2
Figure 9 Dose–response analysis of inhibition by itaconate of WT protein (○) and the K135A (●) mutant was performed by measuring the transport activity with or without itaconate treatment. […] The data are expressed as a percent of the own controls and are means ± SD from three independent experiments.

In the case of `C=C(CC(=O)O)C(=O)O` [itaconate], the IC50 (in general, the concentration at which inhibition is half-maximal) amounted to 4 ± 0.14 mM in test [1]; 15 ± 2.4 mM in test [2] (C-less mutant, read-out: IC50 for itaconate inhibition); 16 ± 2.6 mM on CAC K135A mutant. For the same molecule, in test [2] (15 mM itaconate added to 30 mM PLP pretreated protein, reactants removed by G-75), the “effect on PLP pretreated (protected) C-less CAC” value was “inefficacy”. Besides, the “effect on C-less CAC transport” value in test [2] (15 mM itaconate, no PLP preincubation) is given as “inhibited”.

The values are drawn from PMC10296061, “Inhibition of the Mitochondrial Carnitine/Acylcarnitine Carrier by Itaconate through Irreversible Binding to Cysteine 136: Possible Pathophysiological Implications” (Biomolecules, 2023).
